Patent publication US20160075653A1, “NEMATICIDAL N-(PHENYLCYCLOALKYL)CARBOXAMIDES AND N-(PHENYLCYCLOALKYL)THIOCARBOXAMIDES” (BAYER CROPSCIENCE AKTIENGESELLSCHAFT, priority 2013, published 2016)
Like-named read-outs stand apart in the source and are kept apart here.

Legend:
Boophilus microplus = Boophilus microplus injection test (BOOPMI Inj); format: in vivo; settings: application rate 20 μg/animal, injection into abdomen of adult engorged female ticks, after 7 days
Procedure: Boonhilus micronlus—Injectiontest (BOOPMI Inj)
Solvent: dimethyl sulfoxide
To produce a suitable preparation of active compound, 10 mg of active compound are dissolved in 0.5 ml solvent, and the concentrate is diluted with solvent to the desired concentration.
Five adult engorged female ticks (Boophilus microplus) are injected with 1 μl compound solution into the abdomen. Ticks are transferred into replica plates and incubated in a climate chamber.
After 7 days the egg deposition of fertile eggs is monitored. Eggs where fertility is not visible are stored in a climate chamber till hatching after about 42 days. An efficacy of 100% means that all eggs are infertile; 0% means that all eggs are fertile.

[1] = Measurement of log P values by HPLC on reversed phase columns (methods [a] pH 2.3, [b] pH 2.7, [c] pH 7.8); format: physicochemical; settings: for chromatographic logP: reversed phase HPLC columns, read-out: logP
How it was run: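 Retention times were converted to log P by linear interpolation between linear alkan-2-one standards (3 to 16 carbons) of known log P. Eluents, each with 10% to 95% acetonitrile gradient: phosphoric acid 0.1% at pH 2.3 [a]; formic acid 0.1% at pH 2.7, LC-MS [b]; ammonium hydrogen carbonate 0.001 molar at pH 7.8, LC-MS [c].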

Cooperia curticei = Cooperia curticei test (COOPCU), larval mortality; format: in vivo; settings: for activity (larval mortality): application rate 4 ppm, after 5 days; for mortality at 20 ppm: Cooperia curticei, 120 h, read-out: activity (larval mortality)
Procedure: Cooneria curtice—Test (COOPCU) Solvent: dimethyl sulfoxide
(§1) To produce a suitable preparation of active compound, 10 mg of active compound are dissolved in 0.5 ml solvent, and the concentrate is diluted with “Ringer's solution” to the desired concentration.
Approximately 40 nematode larvae (Cooperia curticei) are transferred into a test tube containing the compound solution.
After 5 days percentage of larval mortality is recorded. 100% efficacy means all larvae are killed; 0% efficacy means no larvae are killed.

Meloidogyne incognita = Meloidogyne incognita test (MELGIN), gall formation on salad seedlings; format: in vivo; settings: application rate 20 ppm, after 14 days
How it was run: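 Sand vessels treated with acetone-formulated compound diluted in water, then inoculated with M. incognita eggs and larvae and sown with salad seeds. Root galling assessed after 14 days: 100% = no galls, 0% = galling equal to untreated plants.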

Haemonchus contortus = Haemonchus contortus test (HAEMCO), larval mortality; format: in vivo; settings: 120 h, read-out: activity (larval mortality)
Procedure: Haemonchus contortus—Test (HAEMCO) Solvent: dimethyl sulfoxide
as §1
Approximately 40 larvae of the red stomach worm (Haemonchus contortus) are transferred into a test tube containing compound solution.
After 5 days percentage of larval mortality are recorded. 100% efficacy means all larvae are killed, 0% efficacy means no larvae are killed.

[2] = HPLC reversed phase, method [b] (pH 2.7)
[3] = pH 2.7, HPLC reversed phase, method [b] (pH 2.7)
[4] = HPLC reversed phase, method [c] pH 7.8
[5] = HPLC on reversed phase column, method [b], pH 2.7
[6] = HPLC on reversed phase column, method [c], pH 7.8

SMILES | logP [1, 2] | nematicidal activity (percentage of gall formation; 100% = no galls) (Meloidogyne incognita) | further results
Cc1nn(C)c(F)c1C(=O)N[C@@H]1C[C@H]1c1ccccc1Cl (relative stereo) [Compound 49] |  |  | activity (efficacy: infertile eggs) (Boophilus microplus): 80%; logP ([1]; HPLC on reversed phase columns, method [b], pH 2.7): 2.40^[b]
O=C(N[C@@H]1C[C@@H]1c1ccc(Cl)cc1Cl)c1ccccc1Br (relative stereo) [Compound 579] | 3.32^[b] |  | activity (larval mortality) (Cooperia curticei): 80%
O=C(NC1CCC1c1ccc(Cl)cc1Cl)c1ccccc1 (stereo not shown) [Compound 451] | 3.30^[b] |  | activity (larval mortality) (Cooperia curticei): 90%
O=C(N[C@@H]1CC[C@@H]1c1ccc(Cl)cc1Cl)c1ccccc1I [Compound 456] |  | 100% | mortality at 20 ppm (Cooperia curticei): 100%; mortality at 20 ppm (Haemonchus contortus): 100%; chromatographic logP [1, 3]: 3.75
O=C(NC1CC1c1ccc(Cl)cc1)c1ncccc1C(F)(F)F (stereo not shown) [Compound 462] | 2.85^[b] | 100% | logP [1, 4]: 2.81^[c];
O=C(NC1CC1c1ccc(Cl)cc1)c1cccnc1C(F)F (stereo not shown) [Compound 465] | 2.15^[b] | 100% | logP [1, 4]: 2.14^[c];
O=C(NC1CCC1c1ccc(Cl)cc1Cl)c1ccccc1Br (stereo not shown) [Compound 472] | 3.60^[b] | 90% | 
O=C(NC1CCC1c1ccc(Cl)cc1Cl)c1c(F)cccc1F (stereo not shown) [Compound 473] | 3.36^[b] | 90% | 
O=C(NC1CCC1c1ccc(Cl)cc1Cl)c1ccccc1C(F)(F)F (stereo not shown) [Compound 476] | 3.72^[b] | 90% | 
O=C(NC1CCC1c1ccc(F)cc1C(F)(F)F)c1ncccc1Cl (stereo not shown) [Compound 479] | 3.11^[b] | 100% | 
O=C(NC1CCC1c1ccc(Cl)cc1Cl)c1cccnc1C(F)(F)F (stereo not shown) [Compound 481] | 3.20^[b] | 100% | 
O=C(NC1CCC1c1ccc(Cl)cc1Cl)c1c(F)cccc1F (stereo not shown) [Compound 482] | 3.70^[b] | 90% | 
Cn1cc(C(=O)NC2CCC2c2ccc(F)cc2C(F)(F)F)c(C(F)F)n1 (stereo not shown) [Compound 485] | 2.84^[b] | 90% | 
O=C(N[C@@H]1CC[C@@H]1c1c(F)cccc1F)c1ccccc1C(F)(F)F [Compound 513] |  | 100% | mortality at 20 ppm (Cooperia curticei): 80%; mortality at 20 ppm (Haemonchus contortus): 90%; chromatographic logP [1, 3]: 3.15
O=C(NC1CCC1c1cc(F)ccc1C(F)(F)F)c1cccc(Cl)c1 (stereo not shown) [Compound 517] | 3.65^[b] | 100% | 
O=C(NC1CCC1c1cc(F)ccc1C(F)(F)F)c1ncccc1Cl (stereo not shown) [Compound 518] | 3.08^[b] | 100% | 
O=C(NC1CCC1c1ccc(F)cc1C(F)(F)F)c1sccc1I (stereo not shown) [Compound 519] | 4.09^[b] | 90% | 
O=C(NC1CCC1c1ccc(F)cc1C(F)(F)F)c1sccc1I (stereo not shown) [Compound 520] | 3.82^[b] | 100% | 
O=C(N[C@@H]1CC[C@@H]1c1ccccc1C(F)(F)F)c1cccnc1Cl [Compound 621] |  | 100% | mortality at 20 ppm (Cooperia curticei): 100%; mortality at 20 ppm (Haemonchus contortus): 90%; chromatographic logP ([1]; pH 2.7, HPLC on reversed phase column, method [b], pH 2.7): 2.64
O=C(NC1CCC1c1ccccc1C(F)(F)F)c1nccnc1C(F)(F)F (stereo not shown) [Compound 684] |  | 100% | logP [1, 5]: 3.15^[b]; logP [1, 6]: 3.10^[c];
O=C(NC1CCC1c1ccccc1C(F)(F)F)c1ncccc1Br (stereo not shown) [Compound 695] |  | 100% | logP [1, 5]: 3.17^[b]; logP [1, 6]: 3.10^[c];
